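Test compounds were applied to cells in 96-well plates for 48 hours at 5 doses. GI50 = concentration required for 50% inhibition of growth. The concentration for full growth arrest is given as TGI.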

For 11 compounds, GI50 and TGI results are on record in PubChem BioAssay (NCI).

What all share (assay): NCI tumour cell line growth inhibition, 48 h
Test [1] deals with UO-31 renal.
Test [2] deals with OVCAR-8 ovarian.
Test [3] relates to A549 NSCLC.
Test [4] relates to PC-3 prostate.
Test [5] has as its system U251 CNS.
Test [6] has as its system SF-268 CNS.
For test [7], the system named is KM12 colon.
Test [8] deals with M14 melanoma.
The test system of test [9] is NCI-H460 lung.
Test [10] concerns HCC-2998 colon.

With `O=C(c1ccccc1)c1nc2ccc(C(F)(F)F)cc2nc1N1CCN(c2ccccc2)CC1`, the GI50 was 31.7 µM in [1]; 41.8 µM in test [2]; more than 100 µM in [3]; 47.1 µM in test [4]; 60900 nM in test [5]; 48000 nM in test [6]. For the same compound, the figures for the GI50 in test [7], in test [8] and in test [9] were 95.1 µM, 23.2 µM and 52100 nM, respectively. For the same compound, the TGI in test [1], in [2], in [3], in test [4], in test [5] and in test [6] was more than 100 µM in each case. The TGI was more than 100 µM in [7], 55.3 µM in [8] and more than 100 µM in [9].
`COC(=O)CNc1nc(N(C)O)nc(N(C)O)n1`: the GI50 was 3.02 µM in test [1]; 3.31 µM in test [2]; 3.44 µM in [3]; more than 100 µM in [4]; 2260 nM in test [5]; 1830 nM in test [6]. Also, the GI50 in test [7] was 5.65 µM; in test [8], 3.38 µM; in test [9], 557 nM. In addition, the TGI in test [1] is 50.5 µM; in [2], more than 100 µM; in [3], more than 100 µM; in [4], more than 100 µM; in test [5] it was more than 100 µM; in test [6] it was more than 100 µM. Besides, the TGI in test [7] was more than 100 µM; in test [8], 32.6 µM; in test [9] it was more than 100 µM.
On to `[Cu+2].[NH-]C(CC(=O)O)C(=O)O.[NH-]C(CC(=O)O)C(=O)O` (stereo not drawn), for which the GI50 is more than 100 µM in test [1]; more than 100 µM in test [2]; 52.1 µM in test [3]; more than 100 µM in test [4]; more than 100000 nM in test [5]; more than 100000 nM in test [6]. Moreover, the results for the GI50 in test [7], in [8] and in test [9] were more than 100 µM, more than 100 µM and more than 100000 nM, respectively. In addition, the TGI in [1], in [2], in [3], in test [4], in test [5] and in test [6] was more than 100 µM in each case. Besides, the TGI in [7], in [8] and in [9] was more than 100 µM throughout.
For `COc1cc(O)c2c(c1)C(=O)C1=C(C2=O)C(O)C[C@@](C)(O)C1` (stereo partly drawn), the TGI in test [10] worked out at 2.91 µM; in [1], 6.6 µM; in test [2] it was 6.15 µM; in [3], 11.5 µM; in [5], 6.34 µM; in test [6] it was 4.47 µM. Further, the TGI was found to be 8.91 µM in test [7], 2.02 µM in test [8] and 4.96 µM in test [9].
Turning to `COC12OCCN(C)C1=CC(=O)C1(C)N=NCC12` (stereo not drawn), the TGI in test [10], in [1], in [2], in [3], in test [5] and in test [7] was more than 100 µM throughout. Moreover, the TGI in [8] and in [9] was more than 100 µM in each case.
In the case of `CCCCCCCCCCOC(=O)NCCC`, the TGI was 76.8 µM in test [10]; 50.6 µM in test [1]; more than 100 µM in test [2]; more than 100 µM in test [3]; 80.6 µM in [5]; more than 100 µM in [6]. Moreover, the TGI in test [7] was more than 100 µM; in test [8] it was more than 100 µM; in test [9] it was 65.9 µM.
Regarding `O=C(CSSCC(=O)Nc1ccc(Br)cc1)Nc1ccc(Br)cc1`, the TGI came out at 50.6 µM in test [10]; 31.8 µM in [1]; 31.6 µM in test [2]; 35.8 µM in [3]; 27.6 µM in test [5]; 26.6 µM in test [6]. The TGI came to 55.4 µM in test [7], 32.7 µM in test [8] and 37.7 µM in test [9].
Regarding `COc1ccc2nc3cccc([N+](=O)[O-])c3c(NC(C)CN(C)C)c2c1` (stereo not drawn), the GI50 in test [1] is 1.7 µM; in test [2], 1.54 µM; in [3] it was 3.48 µM; in [5] it was 371 nM; in test [6], 2640 nM; in test [7] it was 2.18 µM. Also, the GI50 in test [8] is 1.41 µM; in [9] it was 510 nM. Also, the TGI in [1] was 3.62 µM; in test [2], 7.64 µM; in test [3] it was 8.93 µM; in [4], 6.85 µM; in test [5], 2.17 µM; in [6], 11.9 µM. Also, the TGI in test [7] stood at 6.65 µM; in [8], 2.8 µM; in [9] it was 3.73 µM.
Take `CC[PH+](CC)CC.CC[PH+](CC)CC.[Au]`: the GI50 in test [10] is 20.7 µM; in test [1], 21.4 µM; in test [2], 17.9 µM; in [3] it was 22.8 µM; in [5], 8210 nM; in test [6], 13400 nM. Besides, the GI50 is 16.3 µM in test [7], 6.68 µM in [8] and 23500 nM in test [9]. Moreover, the TGI turned out to be 35.2 µM in test [10]; 35.8 µM in test [1]; 38.1 µM in test [2]; 53.1 µM in test [3]; 24.3 µM in [5]; 30.1 µM in test [6]. Moreover, the results for the TGI in test [7], in [8] and in test [9] were 33.3 µM, 22 µM and 60.9 µM, respectively.
On to `N#CCc1nnc(N)o1`, for which the TGI in test [1], in [3], in [5], in test [6], in test [7] and in test [8] was more than 100 µM throughout.
For the compound `COc1cc(/C=C/C(=O)c2c(-c3ccc(F)cc3)nc3sc(C)nn23)cc(OC)c1OC`, the GI50 in test [10] was 2.12 µM; in [1], 1.95 µM; in test [2], 2.48 µM; in test [3], 2.53 µM; in test [5] it was 2010 nM; in test [6], 2740 nM. In addition, the GI50 in test [7] was 1.97 µM; in [8], 3.05 µM; in test [9] it was 1940 nM. Moreover, the TGI in test [10] came out at 3.96 µM; in [1], 4.94 µM; in test [2], 12.9 µM; in test [3] it was 8.63 µM; in test [5] it was 5.45 µM; in test [6], 8.96 µM. Besides, the TGI was found to be 4.59 µM in test [7], 8.1 µM in [8] and 4.08 µM in test [9].
